Assay results reported in US20240284907A1, “NOVEL DERIVATIVES OF NON-CODED AMINO ACIDS AND THEIR USE AS HERBICIDES” (FortePhest LTD., priority 2021, published 2024).

Tested on: Seeds of Lettuce R. (Super-Jericho)
Assay: Filter paper bioassay with lettuce seeds: germination and early plant development, Minimal Effective Concentration (MEC)
Format: in vivo
Conditions: lettuce seeds on filter paper, 0 to 1 mmol/l, visually assessed after 6 days
Text: Materials: Seeds of Lettuce R. (Super-Jericho, non-sterilized) were obtained from Ben Shahar Moshe Ltd., 99% purity. The test compounds listed in the Table 2 below were synthetized de novo or purchased from different vendors.
Filter Paper Bioassays with Lettuce seeds: The protocol is following Bertin et al. 2009 and Movellan et al. 2014 with specified modifications as described below.
Seeds were placed on Whatman no. 1 filter paper (Whatman, Middlesex, U.K.) in Petri dishes (10 seeds per plate) with 2.0 ml of aqueous solution of a test material in concentration ranged from 0 (control) to 1 mmol/l were placed in a tray tilted at 45[…]. The trays were kept in dark for 48 hours and then transferred to the growth chamber with 6/18 dark/light cycle for 4 days. Each experiment was performed at least with two repeats.
The development of plants' radicle and shoots were visually assessed 6 days after the beginning of the test to determine Minimal Effective Concentration (MEC) of a test material. In the context of the invention, MEC is defined as the lowest concentration level of a test material that caused deviation (absence of germination or malformation of radicle or shoots) from the plant's development in the Control group.

Row | SMILES | Score (activity score of Minimal Effective Concentration, MEC)
1 | O=C(O)C(=O)/C=C/c1cc(Cl)sc1Cl [compound 5620, (3E)-4-(2,5-dichlorothiophen-3-yl)-2-oxobut-3-enoic acid] | Weak (Higher than 0.1 mM)
2 | O=C(O)CCN1CCN(Cc2cc(Cl)sc2Cl)CC1 [compound 5626, 3-{4-[(2,5-dichlorothiophen-3-yl)methyl]piperazin-1-yl}propanoic acid] | Weak (Higher than 0.1 mM)
3 | O=C(O)CCC(F)(F)c1cc(Cl)sc1Cl [compound 5632, 4-(2,5-dichlorothiophen-3-yl)-4,4-difluorobutanoic acid] | Moderate (0.1 mM)
4 | O=C(O)C(=O)c1c(Cl)sc(Cl)c1Cl [compound 5645, 2-oxo-2-(245-trichlorothiophen-3-yl)acetic acid] | Strong (0.01 mM)
5 | O=C(O)C(F)(F)c1ccc2[nH]c(=O)[nH]c2c1 [compound 5654, 2,2-difluoro-2-(2-oxo-23-dihydro-1H-1,3-benzodiazol-5-yl)acetic acid] | Weak (Higher than 0.1 mM)
6 | CCOC(=O)C(Br)c1nc(Br)sc1C (stereo not drawn) [compound 5662, ethyl 2-bromo-2-(2-bromo-5-methyl-1,3-thiazol-4-yl)acetate] | Moderate (0.1 mM)
7 | Cl.Nc1nc2c(s1)CCCC2C(=O)O (stereo not drawn) [compound 5673, 2-amino-4567-tetrahydro-1,3-benzothiazole-4-carboxylic acid hydrochloride] | <moderate
8 | C[N+](C)(C)CCc1nc(Cl)sc1Cl [compound 5680, 2-(2,5-dichloro-1,3-thiazol-4-yl)-NNN-trimethylethan-1-aminium] | Weak (Higher than 0.1 mM)
9 | O=C(O)c1cnc2sc(Cl)nc2c1 [compound 5683, 2-chloro[1,3]thiazolo[54-b]pyridine-6-carboxylic acid] | Moderate (0.1 mM)
10 | Clc1cc(CCNCc2ccccc2)c(Cl)s1 [compound 5694, benzyl[2-(2,5-dichlorothiophen-3-yl)ethyl]amine] | Moderate (0.1 mM)
11 | Nc1nc(C(F)(F)c2ccccc2)cs1 [compound 5697, 4-[difluoro(phenyl)methyl]-1,3-thiazol-2-amine] | Strong (0.01 mM)
12 | NNC(=O)Cc1csc(Cl)n1 [compound 5704, 2-(2-chloro-1,3-thiazol-4-yl)acetohydrazide] | Moderate (0.1 mM)
13 | O=C(Cc1ccccc1)NCCc1cc(Cl)sc1Cl [compound 5708, N-[2-(2,5-dichlorothiophen-3-yl)ethyl]-2-phenylacetamide] | Moderate (0.1 mM)
14 | CNNC(=O)Cc1csc(Cl)n1 [compound 5715, 2-(2-chloro-1,3-thiazol-4-yl)-N′-methyl acetohydrazide] | Moderate (0.1 mM)
15 | O=C(O)Cc1csc(-c2ncc(Cl)cc2F)n1 [compound 5716, 2-[2-(5-chloro-3-fluoropyridin-2-yl)-1,3-thiazol-4-yl]acetic acid] | Moderate (0.1 mM)
16 | O=C(O)C(F)(F)c1csc([N+](=O)[O-])n1 [compound 5719, 2,2-difluoro-2-(2-nitro-1,3-thiazol-4-yl)acetic acid] | Moderate (0.1 mM)
17 | O=C(O)C(F)(F)c1sc(Cl)nc1Cl [compound 5722, (24-dichloro-1,3-thiazol-5-yl)(difluoro)acetic acid] | Weak (Higher than 0.1 mM)
18 | CS(=O)(=O)NCCNCCc1cc(Cl)sc1Cl [compound 5723, N-(2-{[2-(2,5-dichlorothiophen-3-yl)ethyl]amino}ethyl)methane sulfonamide] | Strong (0.01 mM)
19 | CC(=O)C1CN(CCc2cc(Cl)sc2Cl)CCC1=O (stereo not drawn) [compound 5743, 3-acetyl-1-[2-(2,5-dichlorothiophen-3-yl)ethyl]piperidin-4-one] | Moderate (0.1 mM)
20 | O=C(O)C1Cc2nnsc2S1 (stereo not drawn) [compound 5750, 5H,6H-thieno[3,2-d][1,2,3]thiadiazole-5-carboxylic acid] | Moderate (0.1 mM)
21 | O=C(O)C(F)(F)c1csc(-c2ccc(C(F)(F)F)cc2F)n1 [compound 5763, 2,2-difluoro-2-{2-[2-fluoro-4-(trifluoromethyl)phenyl]-1,3-thiazol-4-yl}acetic acid] | Moderate (0.1 mM)
22 | O=C(O)C(F)(F)c1cscc1C(F)(F)F [compound 5764, difluoro[4-(trifluoromethyl)thiophen-3-yl]acetic acid] | Strong (0.01 mM)
23 | NC(N)=NCCCc1cc(Cl)sc1Cl [compound 5765, N″-[3-(2,5-dichlorothiophen-3-yl)propyl]guanidine] | Strong (0.01 mM)

Row | SMILES | Score (activity score of Minimal Effective Concentration, MEC)
24 | N=C(NCCc1cc(Cl)sc1Cl)Nc1ccc(O)cc1 [compound 5766, N-[2-(2,5-dichlorothiophen-3-yl)ethyl]-N′-(4-hydroxyphenyl)guanidine] | Moderate (0.1 mM)
25 | O=C([O-])Cc1cnsn1.[Li+] [compound 5776, lithium(1+) 2-(1,2,5-thiadiazol-3-yl)acetate[Li+]] | Moderate (0.1 mM)
26 | Cc1nsnc1CC(=O)O [compound 5785, (4-methyl-1,2,5-thiadiazol-3-yl)acetic acid] | Moderate (0.1 mM)
27 | CCOC(=O)Cc1csc(Cl)c1 [compound 5796, ethyl(5-chlorothiophen-3-yl)acetate] | Moderate (0.1 mM)
28 | O=C(O)C(F)(F)c1nnn[nH]1 [compound 5799, difluoro(1H-tetrazol-5-yl)acetic acid] | Moderate (0.1 mM)
29 | O=C(Cc1csc(Cl)n1)OCC(=O)c1cccc(Br)n1 [compound 5801, 2-(6-bromopyridin-2-yl)-2-oxoethyl 2-(2-chloro-1,3-thiazol-4-yl)acetate] | Moderate (0.1 mM)
30 | NC(=O)Nc1ccnc(Br)c1 [compound 6602, (2-bromopyridin-4-yl)urea] | Weak (Higher than 0.1 mM)
31 | O=C(O)/C=C/c1cccc(Cl)n1 [compound 6603, (2E)-3-(6-chloropyridin-2-yl)prop-2-enoic acid] | Weak (Higher than 0.1 mM)
32 | O=C(O)/C=C/c1cccnc1Cl [compound 6604, (2E)-3-(2-chloropyridin-3-yl)prop-2-enoic acid] | Moderate (0.1 mM)
33 | O=C(O)/C=C/c1cccnc1Br [compound 6605, (2E)-3-(2-bromopyridin-3-yl)prop-2-enoic acid] | Strong (0.01 mM)
34 | O=C(O)/C=C/c1ccnc(Br)c1 [compound 6606, (2E)-3-(2-bromopyridin-4-yl)prop-2-enoic acid] | Weak (Higher than 0.1 mM)
35 | O=C(Nc1ccnc(Br)c1)c1ccnc(Br)c1 [compound 6607, 2-bromo-N-(2-bromopyridin-4-yl)pyridine-4-carboxamide] | Strong (0.01 mM)
36 | O=C(O)C(=O)c1ccc(Br)nc1 [compound 6609, 2-(6-bromopyridin-3-yl)-2-oxoacetic acid] | Weak (Higher than 0.1 mM)
37 | O=C(O)C(=O)Cc1ccnc(Br)c1 [compound 6611, 3-(2-bromopyridin-4-yl)-2-oxopropanoic acid] | Weak (Higher than 0.1 mM)
38 | O=C(O)C(F)(F)c1ccncc1 [compound 6614, 2,2-difluoro-2-(pyridin-4-yl)acetic acid] | Weak (Higher than 0.1 mM)
39 | O=C(O)Cc1ccc(Oc2ccncc2)cc1 [compound 6615, 2-[4-(pyridin-4-yloxy)phenyl]acetic acid] | Weak (Higher than 0.1 mM)
40 | NC(=O)CC(N)c1ccnc(Br)c1 (stereo not drawn) [compound 6616, 3-amino-3-(2-bromopyridin-4-yl)propanamide] | Weak (Higher than 0.1 mM)
41 | O=C(NCC(F)(F)C(=O)O)c1ccnc(Br)c1 [compound 6618, 3-[(2-bromopyridin-4-yl)formamido]-2,2-difluoropropanoic acid] | Strong (0.01 mM)
42 | O=C(O)C(F)(F)c1ncccn1 [compound 6619, 2,2-difluoro-2-(pyrimidin-2-yl)acetic acid] | Weak (Higher than 0.1 mM)
43 | O=C(O)c1ccc2ccnc(Cl)c2c1 [compound 6627, 1-chloroisoquinoline-7-carboxylic acid] | Moderate (0.1 mM)
44 | O=C(O)/C=C/c1ccnc(Br)c1[N+](=O)[O-] [compound 6631, (2E)-3-(2-bromo-3-nitropyridin-4-yl)prop-2-enoic acid] | Moderate (0.1 mM)
45 | Cl.N=C(N)c1cccc(Br)n1 [compound 6634, 6-bromopyridine-2-carboximidamide hydrochloride[HCl]] | Weak (Higher than 0.1 mM)
